From patent US20240208912A1 (Mirati Therapeutics, Inc., priority 2021, published 2024)
Read-outs that look alike come from different tables or passages of the source.

How the values were obtained:
[1] = system: HCT116 homozygous MTAP knockout cells; experiment: Proliferation assay (CellTiter-Glo, 10 days) in HCT116 homozygous MTAP knockout cells; type: cell-based; settings: CellTiter-Glo after 10 days of treatment, read-out: Proliferation IC50 (nM) HCT116 MTAP_KO
Description: HCT116 cells were genetically engineered to knock out the function of both MTAP alleles using a CRISPR/Cas9 system and an sgRNA targeting the MTAP gene. Following Cas9/MTAP sgRNA transduction, clones were screened to confirm that each allele of the MTAP gene had been inactivated (i.e., homozygous MTAP knock out) creating an MTAP-deficient cell.
Control samples were analyzed in parallel.
Briefly, on Day 0, 250 HCT116 parental or HCT116 homozygous MTAP knockout cell were seeded in 96 well plates in McCoy's 5A supplemented with […] fetal bovine serum and pen/strep and the cells were incubated overnight at 37° C. plus 5% CO2.
The following day, cells were treated with DMSO vehicle control or a dose response of PRMT5 inhibitors and incubated at 37 C plus 5% CO2 for five days. On Day 6, the cells were trypsinized and split 1:10 into new 96-well plates with fresh medium containing the same concentration of PRMT5 inhibitor and incubated for an additional 5 days at 37° C. plus 5% CO^2.
On Day 11, the viability of the cells was measured using a CTG assay kit (CellTiter-Glo; Promega cat.no G7573) in accordance with the manufacturer's instructions. The IC50 values for each compound after 10 days of treatment were calculated using GraphPad PRISM software.

PRMT5/MEP50 complex = biological target: T1, PRMT5/MEP50 complex (Homo sapiens, UniProt O14744); experiment: PRMT5:MEP50 HotSpot Assay (full-length histone H2A substrate, plus and minus MTA); type: biochemical; settings: IC50 + 2 μM MTA, in the presence of 2 μM MTA
T1 construct: purchased Reaction Biology Corporation
Description: The PRMT5 inhibitory activity of compounds of the present invention was determined using either a PRMT5:MEP50 FlashPlate Assay (Reaction Biology Corporation) or a PRMT5:MEP50 HotSpot Assay (Reaction Biology Corporation).
The assay uses recombinant full-length hi stone H2A as the PRMT5 substrate. […] The reaction was stopped and transferred to filter paper for detection. The amount of tritiated H2A in each sample was determined using a scintillation counter.

T1 sequence (O14744 2-637 limits assumed): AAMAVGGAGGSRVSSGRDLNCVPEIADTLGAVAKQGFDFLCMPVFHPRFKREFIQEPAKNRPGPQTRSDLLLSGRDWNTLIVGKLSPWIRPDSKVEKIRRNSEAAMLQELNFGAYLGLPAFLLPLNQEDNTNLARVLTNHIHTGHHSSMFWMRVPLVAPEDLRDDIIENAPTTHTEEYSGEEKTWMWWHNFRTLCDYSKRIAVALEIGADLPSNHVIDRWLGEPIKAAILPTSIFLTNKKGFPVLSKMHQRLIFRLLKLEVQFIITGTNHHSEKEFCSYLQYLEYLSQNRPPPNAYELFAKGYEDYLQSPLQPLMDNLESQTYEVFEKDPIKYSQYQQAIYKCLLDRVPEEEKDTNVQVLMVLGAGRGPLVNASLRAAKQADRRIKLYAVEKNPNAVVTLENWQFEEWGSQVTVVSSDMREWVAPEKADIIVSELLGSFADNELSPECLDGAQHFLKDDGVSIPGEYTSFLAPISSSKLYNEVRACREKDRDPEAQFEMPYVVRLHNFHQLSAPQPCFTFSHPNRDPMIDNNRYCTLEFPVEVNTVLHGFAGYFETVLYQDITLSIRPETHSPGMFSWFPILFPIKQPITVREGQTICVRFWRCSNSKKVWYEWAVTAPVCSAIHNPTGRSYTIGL
T1 sequence (Q9BQA1 2-342 partner limits assumed): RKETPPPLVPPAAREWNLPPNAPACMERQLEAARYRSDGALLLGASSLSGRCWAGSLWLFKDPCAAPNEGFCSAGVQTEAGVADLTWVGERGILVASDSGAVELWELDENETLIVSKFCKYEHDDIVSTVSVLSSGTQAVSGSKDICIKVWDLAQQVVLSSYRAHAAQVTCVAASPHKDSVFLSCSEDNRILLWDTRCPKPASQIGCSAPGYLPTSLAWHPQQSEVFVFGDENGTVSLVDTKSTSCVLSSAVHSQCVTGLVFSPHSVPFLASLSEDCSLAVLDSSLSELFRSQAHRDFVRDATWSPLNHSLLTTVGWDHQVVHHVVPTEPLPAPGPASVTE

Row | SMILES | IC50 ([1]; Homo sapiens, HCT-116, 240 h) [nM] | IC50 (PRMT5/MEP50 complex) [nM] | IC50 [1] [nM]
1 | Cc1cnc2cc(F)c(-c3c(-c4ccc5c(=O)[nH]nc(CN)c5c4)cnn3C)c(C#N)c2c1 (atropisomer, axis not shown; (M)) [Example 16-35, (M)-6-[4-[4-(aminomethyl)-1-oxo-2H-phthalazin-6-yl]-2-methyl-pyrazol-3-yl]-7-fluoro-3-methyl-quinoline-5-carbonitrile] | 5 | 84 | 
2 | Cn1ncc(-c2ccc3c(=O)[nH]nc(CN)c3c2)c1-c1c(F)cc2c(c1C#N)OCCC2 (atropisomer, axis not shown; (M)) [Example 16-38, (M)-7-[4-[4-(aminomethyl)-1-oxo-2H-phthalazin-6-yl]-2-methyl-pyrazol-3-yl]-6-fluoro-chromane-8-carbonitrile] |  | 83.8 | 39
3 | C[C@@H]1C[C@H]1Oc1ccc(F)c(-c2c(-c3ccc4c(=O)[nH]nc(CN)c4c3)cnn2C)c1C#N (atropisomer, axis not shown; (M)) [Example 16-66, (M)-2-(4-(4-(aminomethyl)-1-oxo-1,2-dihydrophthalazin-6-yl)-1-methyl-1H-pyrazol-5-yl)-3-fluoro-6-((1R,2R)-2-methylcyclopropoxy)benzonitrile] |  | 107 | 35
4 | COc1cc(F)c(-c2c(-c3ccc4c(=O)[nH]nc(CN)c4c3)cnn2C)c(C#N)c1OC1CC1 (atropisomer, axis not shown; (M)) [Example 16-71, (M)-2-[4-[4-(aminomethyl)-1-oxo-2H-phthalazin-6-yl]-2-methyl-pyrazol-3-yl]-6-(cyclopropoxy)-3-fluoro-5-methoxy-benzonitrile] |  | 142 | 50
5 | CCOc1cc(-c2cnn(C)c2-c2c(F)ccc(OC3CC3)c2C#N)cc2c(CN)n[nH]c(=O)c12 (atropisomer, axis not shown; (M)) [Example 16-74, (M)-2-[4-[4-(aminomethyl)-8-ethoxy-1-oxo-2H-phthalazin-6-yl]-2-methyl-pyrazol-3-yl]-6-(cyclopropoxy)-3-fluoro-benzonitrile] |  | 346 | 158
6 | Cn1ncc(-c2ccc3c(=O)[nH]nc(CN)c3c2)c1-c1c(F)cc2c(c1C#N)OCO2 (atropisomer, axis not shown; (M)) [Example 16-88, (M)-5-[4-[4-(aminomethyl)-1-oxo-2H-phthalazin-6-yl]-2-methyl-pyrazol-3-yl]-6-fluoro-1,3-benzodioxole-4-carbonitrile] |  | 181 | 173
7 | Cc1cnc2c(C#N)c(-c3c(-c4ccc5c(=O)[nH]nc(CN)c5c4)cnn3C)c(F)c(C)c2c1 (atropisomer, axis not shown; (M)) [Example 16-94, (M)-7-(4-(4-(aminomethyl)-1-oxo-1,2-dihydrophthalazin-6-yl)-1-methyl-1H-pyrazol-5-yl)-6-fluoro-3,5-dimethylquinoline-8-carbonitrile] |  | 1140 | 231
8 | Cn1ncc(-c2ccc3c(=O)[nH]nc(CN)c3c2)c1-c1c(F)cc2c(c1C#N)OCCC2 (atropisomer, axis not shown; (P)) [Example 16-37, (P)-7-[4-[4-(aminomethyl)-1-oxo-2H-phthalazin-6-yl]-2-methyl-pyrazol-3-yl]-6-fluoro-chromane-8-carbonitrile] |  | 102 | 216
9 | C[C@@H]1C[C@H]1Oc1ccc(F)c(-c2c(-c3ccc4c(=O)[nH]nc(CN)c4c3)cnn2C)c1C#N (atropisomer, axis not shown; (P)) [Example 16-65, (P)-2-(4-(4-(aminomethyl)-1-oxo-1,2-dihydrophthalazin-6-yl)-1-methyl-1H-pyrazol-5-yl)-3-fluoro-6-((1R,2R)-2-methylcyclopropoxy)benzonitrile] |  | 204 | 187
10 | COc1cc(F)c(-c2c(-c3ccc4c(=O)[nH]nc(CN)c4c3)cnn2C)c(C#N)c1OC1CC1 (atropisomer, axis not shown; (P)) [Example 16-72, (P)-2-[4-[4-(aminomethyl)-1-oxo-2H-phthalazin-6-yl]-2-methyl-pyrazol-3-yl]-6-(cyclopropoxy)-3-fluoro-5-methoxy-benzonitrile] |  | 113 | 461
11 | CCOc1cc(-c2cnn(C)c2-c2c(F)ccc(OC3CC3)c2C#N)cc2c(CN)n[nH]c(=O)c12 (atropisomer, axis not shown; (P)) [Example 16-73, (P)-2-[4-[4-(aminomethyl)-8-ethoxy-1-oxo-2H-phthalazin-6-yl]-2-methyl-pyrazol-3-yl]-6-(cyclopropoxy)-3-fluoro-benzonitrile] |  | 909 | 1070
12 | Cn1ncc(-c2ccc3c(=O)[nH]nc(CN)c3c2)c1-c1c(C#N)cc2cccnc2c1Cl (atropisomer, axis not shown; (P)) [Example 16-83, (P)-7-(4-(4-(aminomethyl)-1-oxo-1,2-dihydrophthalazin-6-yl)-1-methyl-1H-pyrazol-5-yl)-8-chloroquinoline-6-carbonitrile] |  | 446 | 1690
13 | Cc1cnc2c(C#N)c(-c3c(-c4ccc5c(=O)[nH]nc(CN)c5c4)cnn3C)c(F)c(C)c2c1 (atropisomer, axis not shown; (P)) [Example 16-93, (P)-7-(4-(4-(aminomethyl)-1-oxo-1,2-dihydrophthalazin-6-yl)-1-methyl-1H-pyrazol-5-yl)-6-fluoro-3,5-dimethylquinoline-8-carbonitrile] |  | 821 | 3290
14 | Cc1c(F)c(-c2c(-c3cc(Cl)c4c(=O)[nH]nc(CN)c4c3)cnn2C)c(C#N)c2ncc(Cl)cc12 (atropisomer, axis not shown; (P)) [Example 16-97, (P)-7-(4-(4-(aminomethyl)-8-chloro-1-oxo-1,2-dihydrophthalazin-6-yl)-1-methyl-1H-pyrazol-5-yl)-3-chloro-6-fluoro-5-methylquinoline-8-carbonitrile] | 1860 | > 1000 | 
15 | Cn1ncc(-c2cc(Cl)c3c(=O)[nH]nc(CN)c3c2)c1-c1c(F)cc2ccccc2c1C#N (single isomer, unassigned) [Example 16-11, (P)-2-(4-(4-(aminomethyl)-8-chloro-1-oxo-1,2-dihydrophthalazin-6-yl)-1-methyl-1H-pyrazol-5-yl)-3-fluoro-1-naphthonitrile] |  | 102 | 5
16 | COCc1ccc2c(C#N)c(-c3c(-c4ccc5c(=O)[nH]nc(CN)c5c4)cnn3C)sc2c1 [Example 4-271, 2-(4-(4-(aminomethyl)-1-oxo-1,2-dihydrophthalazin-6-yl)-1-methyl-1H-pyrazol-5-yl)-6-(methoxymethyl)benzo[b]thiophene-3-carbonitrile] | 289 |  | 
17 | Cn1ncc(-c2ccc3c(=O)[nH]nc(CN)c3c2)c1-c1sc2cccnc2c1C#N [Example 4-275, 2-(4-(4-(aminomethyl)-1-oxo-1,2-dihydrophthalazin-6-yl)-1-methyl-1H-pyrazol-5-yl)thieno[3,2-b]pyridine-3-carbonitrile] | 1880 |  | 
18 | Cn1ncc(-c2ccc3c(=O)[nH]nc(C4(N)COC4)c3c2)c1-c1sc2ccccc2c1C#N [Example 9-9, 2-(4-(4-(3-aminooxetan-3-yl)-1-oxo-1,2-dihydrophthalazin-6-yl)-1-methyl-1H-pyrazol-5-yl)benzo[b]thiophene-3-carbonitrile] | 10000 |  | 
19 | Cn1ncc(-c2ccc3c(=O)[nH]nc(CN)c3n2)c1-c1sc2ccccc2c1C#N [Example 17-3, 2-[4-[8-(aminomethyl)-5-oxo-6H-pyrido[2,3-d]pyridazin-2-yl]-2-methyl-pyrazol-3-yl]benzothiophene-3-carbonitrile] | 278 |  | 
